For assay [1], the system named is Swiss 3T3 mouse fibroblast cells. The assay is described as follows: ROS scavenging assay (DCFH-DA dye, oxidation initiated by FeSO4). It counts as cell-based. Conditions: for IC50: Mus musculus, Swiss-3T3, DCFH-DA, FeSO4, 1 hr at 37° C., fluorescence 485/520 nm, called SC50, read-out: % Inhibition (IC50 μg/ml) ROS scavenging in Swiss 3T3 fibroblast cell line. As to the method:
The DPPH free radical scavenging activity is studied based on the stable free radical 1,1-diphenyl-2-picryl hydrazyl radical (DPPH) which, in presence of an antioxidant in organic/aqueous organic media is bleached and the decrease of absorbance of DPPH is measured spectrophotometrically at 516 nm. The assay mixture containing DPPH methanolic solution & methanolic solutions of various concentrations of the antioxidant is incubated at 37 degree C. for 30 minutes. The reduction in absorbance is measured spectrophotometrically at 516 nm. The free radical scavenging activity is expressed as SC50, the concentration of the sample required for 50% of the free radical to be scavenged. The ROS scavenging assay is based on a cell permeable, non-fluorescent dye, de-esterified DCFH-DA (dichloro fluorescein diacetate) being converted to dichlorofluorescein upon oxidation by the reactive oxygen species. […] Swiss 3T3 mouse fibroblast cells are cultured in DMEM medium with 10% FBS. 1×10^5 cells per well are plated into a 96 well black plate. After treatment with varying concentrations of the samples, the cells are exposed to DCFH-DA dye and oxidation initiated by FeSO4. […] The fluorescence intensity is directly proportional to the ROS scavenging activity of the samples. The activity is expressed as SC50 which is the concentration required for 50% scavenging of ROS.

Assay [2] can be described thus: DPPH free radical scavenging assay. As to conditions: methanolic solution, 37 degree C. for 30 minutes, absorbance at 516 nm; called SC50. It counts as biochemical. As to the method:
The DPPH free radical scavenging activity is studied based on the stable free radical 1,1-diphenyl-2-picryl hydrazyl radical (DPPH) which, in presence of an antioxidant in organic/aqueous organic media is bleached and the decrease of absorbance of DPPH is measured spectrophotometrically at 516 nm. The assay mixture containing DPPH methanolic solution & methanolic solutions of various concentrations of the antioxidant is incubated at 37 degree C. for 30 minutes. The reduction in absorbance is measured spectrophotometrically at 516 nm. The free radical scavenging activity is expressed as SC50, the concentration of the sample required for 50% of the free radical to be scavenged. The ROS scavenging assay is based on a cell permeable, non-fluorescent dye, de-esterified DCFH-DA (dichloro fluorescein diacetate) being converted to dichlorofluorescein upon oxidation by the reactive oxygen species. The scavenging activity of sample is indicated by the decrease in fluorescence (wavelength 485/520 nm). Swiss 3T3 mouse fibroblast cells are cultured in DMEM medium with 10% FBS. […] After incubation for 1 hr at 37° C., the fluorescence reading is taken at wavelength 485/520 nm (Fluostar optima microplate reader). The fluorescence intensity is directly proportional to the ROS scavenging activity of the samples. The activity is expressed as SC50 which is the concentration required for 50% scavenging of ROS.

Data on three compounds can be found in US20090318565A1, “Novel Compositions for the Enhancement of the Anti-oxidant Potential of Hydrogenated Curcuminoids or Combinations Thereof” (priority 2008, published 2009).

≈ marks a conversion by molar mass, not a printed value.

On to `COc1cc(CCC(=O)CC(=O)CCc2ccc(O)cc2)ccc1O` [STR#V, 1-(4-hydroxy-3-methoxyphenyl)-7-(4-hydroxyphenyl)-3,5-heptanedione], for which the IC50 in assay [1] was determined as 4.5 µg/mL (≈ 13.1 µM). In addition, in assay [1] (hydrogenated derivative against demethoxycurcumin), the “enhancement of anti-oxidant properties upon hydrogenation (ROS scavenging activity)” value was “about 10 fold”. This compound also came in with an SC50 in assay [2] of 3.0 µg/mL.
Consider `O=C(CCc1ccc(O)cc1)CC(=O)CCc1ccc(O)cc1` [STR#1, 1,7-Bis(4-hydroxyphenyl)-3,5-heptanedione], for which, in assay [1] (upon hydrogenation), the “pro-oxidant properties of hydrogenated derivative against bisdemethoxycurcumin” value was “enhanced”.
With `COc1cc(CCC(=O)CC(=O)CCc2ccc(O)c(OC)c2)ccc1O` [STR#II, 1,7-Bis(4-hydroxy-3-methoxyphenyl)-3,5-heptanedione], in assay [1], the IC50 was found to be 1.35 µg/mL (≈ 3.62 µM). Also, the “anti-oxidant activity of hydrogenated derivative against curcumin” value in assay [1] (upon hydrogenation) is “enhanced”.
